Laboratory results from PubChem BioAssay (NCI).
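Protocol summary: plate cells (96-well), add compound at 5 concentrations, incubate 48 h, interpolate endpoints linearly. GI50 marks 50% less growth. TGI denotes the concentration required for complete inhibition of growth.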

Key:
Test in all cases: NCI tumour cell line growth inhibition, 48 h
A549 NSCLC = system: A549 NSCLC
CAKI-1 renal = system: CAKI-1 renal
HCC-2998 colon = system: HCC-2998 colon
NCI-H226 lung = system: NCI-H226 lung
NCI-H23 lung = system: NCI-H23 lung
NCI-H460 lung = system: NCI-H460 lung
OVCAR-8 ovarian = system: OVCAR-8 ovarian
SK-MEL-28 melanoma = system: SK-MEL-28 melanoma
SR leukemia = system: SR leukemia
UACC-257 melanoma = system: UACC-257 melanoma

SMILES | TGI (A549 NSCLC) | TGI (CAKI-1 renal) | TGI (HCC-2998 colon) | TGI (NCI-H226 lung) | TGI (NCI-H23 lung) | TGI (NCI-H460 lung) | TGI (OVCAR-8 ovarian) | TGI (SK-MEL-28 melanoma) | TGI (SR leukemia) | TGI (UACC-257 melanoma) | GI50 (A549 NSCLC) | GI50 (CAKI-1 renal) | GI50 (HCC-2998 colon) | GI50 (NCI-H226 lung) | GI50 (NCI-H23 lung) | GI50 (NCI-H460 lung) | GI50 (OVCAR-8 ovarian) | GI50 (SK-MEL-28 melanoma) | GI50 (SR leukemia) | GI50 (UACC-257 melanoma)
Cc1ccc([N+](=O)[O-])cc1NC(=O)C(=O)Cc1cc(=O)oc2cc(O)ccc12 | > 100 µM | > 100 µM | > 100 µM | > 100 µM | > 100 µM | > 100 µM | > 100 µM | > 100 µM | 94.2 µM | > 100 µM |  |  |  |  |  |  |  |  |  | 
COc1ccc(CC2NCCc3cc(OC)c(OC)cc32)cc1 (stereo not given) | > 100 µM | > 100 µM | > 100 µM | > 100 µM | > 100 µM | > 100 µM | > 100 µM | > 100 µM | > 100 µM | > 100 µM |  |  |  |  |  |  |  |  |  | 
CS(=O)(=O)Nc1cccc(-c2ccc3c(NC(=O)C4CC4)n[nH]c3c2)c1 | > 25 µM | > 25 µM | > 25 µM | > 25 µM | > 25 µM | > 25 µM | > 25 µM | > 25 µM | > 25 µM | > 25 µM | 10.9 µM | > 20.6 µM | 4.08 µM | 2.59 µM | 10.2 µM | 7.76 µM | 6.26 µM | 3.4 µM | 0.355 µM | > 25 µM
O=C(Nc1cccc([N+](=O)[O-])c1)c1ccc2ccccc2c1O | > 100 µM | > 38.4 µM | > 100 µM | > 100 µM | > 89.8 µM | > 100 µM | > 100 µM | > 100 µM | > 29.1 µM | 7.34 µM | 6.87 µM | 2.48 µM | 5.01 µM | 7.57 µM | 3.79 µM | 3.69 µM | 9.66 µM | 6.03 µM | 3.94 µM | 2.42 µM
CCCCCCCCCCCCCCCCOC(=O)c1c(C)[nH]c(/C=C2\N=C(c3ccc[nH]3)C=C2OC)c1C | 12.8 µM | 30.5 µM | 14.9 µM | 15.2 µM | 12.7 µM | > 100 µM | 15 µM | > 48.7 µM | > 100 µM | > 100 µM | 0.239 µM | 0.212 µM | 0.244 µM | 4.54 µM | 1.15 µM | 0.0429 µM | 0.384 µM | 3.94 µM | 1.54 µM | 9.69 µM
Cc1cc(O)ccc1O | > 100 µM | 57.4 µM | > 100 µM | > 100 µM | > 100 µM | > 100 µM | > 100 µM | > 100 µM | 76.6 µM | > 100 µM | > 100 µM | 20.7 µM | 73.6 µM | 55.6 µM | 39.4 µM | 45.4 µM | 32.7 µM | 30.6 µM | 19.4 µM | 43.1 µM
COc1ccc(Cn2cc3c(c2-c2ccc(O)cc2)CCc2cnoc2-3)cc1 | 18.4 µM | 18.8 µM | 12.9 µM | 31.3 µM | 17.8 µM | 4.45 µM | 23.6 µM | 21.7 µM | 3.79 µM | 30.6 µM | 0.477 µM | 0.331 µM | 0.602 µM | 4.6 µM | 0.461 µM | 0.321 µM | 0.633 µM | 0.616 µM | 0.149 µM | 13.7 µM
